Patent publication US8747890B2 (priority 2009, dated 2014)

How the values were obtained:
[1] = human, whole blood, iv, 9 mg/m2
[2] = Extrapolation of blood Cmax to an 80 kg human after intravenous infusion; conditions: 440 mg/M^2 one hour infusion

Cmax [1]: 3.4 µg/mL
Cmax extrapolated to humans [2]: 160 µg/mL
Compound: COc1cc(C=CC(=O)CC(=O)C=Cc2ccc(O)c(OC)c2)ccc1O [curcumin, 1,7-bis(4-hydroxy-3-methoxyphenyl)-1,6-heptadiene-3,5-dione]
